One test has as its target T1, CDK12/CycK (Homo sapiens, UniProt Q9NYV4).
T1 construct: His-CDK12 (aa Q696-S1082); made in house; host or cells: Hi-5 insect cells (baculovirus co-infection with CAK1)
As to the kind of experiment: CDK12/CycK high ATP kinase assay (TR-FRET, 2 mM ATP). The format is biochemical. As to conditions: read-out: CDK12/CyclinK, 2 mM ATP (high ATP), IC50-[mol/l] (median). From the text:
In the context of the present invention, the term “IC50 CDK12 hATP” refers to the IC50 values obtained according to the assay described in this section (2.2) herein below, i.e. the IC50 values for the inhibition of CDK12 at high ATP.
CDK12/CycK-inhibitory activity of compounds of the present invention at 2 millimol/L adenosine-tri-phosphate (ATP) was quantified employing the TR-FRET (TR-FRET=Time Resolved Fluorescence Energy Transfer) based CDK12/CycK activity inhibition assay as described in the following paragraphs.
A complex of human recombinant CDK12 and human recombinant CycK (both N-terminally His-tagged, expression and purification as described above) was used as enzyme. As substrate for the kinase reaction biotinylated peptide biotin-Ahx-KFELLPTPPLSPSRRSGL (C-terminus in amid form) was used which can be purchased e.g. form the company Biosyntan (Berlin-Buch, Germany).
For the assay 50 nanoL of a 100 fold concentrated solution of the test compound in DMSO was pipetted into either a black low volume 384 well microtiter plate or a black 1536 well microtiter plate (both Greiner Bio-One, Frickenhausen, Germany), 2 microL of a solution of CDK12/CycK in aqueous assay buffer [25 millimol/L HEPES pH 7.5, 20 millimol/L MgCl2, 5 millimol/L ß-glycerophosphate, 2 millimol/L EGTA, 1.0 millimol/L dithiothreitol, 0.01% (v/v) Nonidet-P40 (Sigma), 0.01% (w/v) bovine serum albumin] were added and the mixture was incubated for 15 min at 22° C. to allow pre-binding of the test compounds to the enzyme before the start of the kinase reaction. Then the kinase reaction was started by the addition of 3 microL of a solution ATP (3.33 millimol/L=> final conc. in the 5 microL assay volume is 2 millimol/L) and substrate (1.67 micromol/L=> final conc. in the 5 microL assay volume is 1 micromol/L) in assay buffer and the resulting mixture was incubated for a reaction time of 60 min at 22° C. The concentration of CDK12/CycK was adjusted depending of the activity of the enzyme lot and was chosen appropriate to have the assay in the linear range, typical concentrations were about 0.75 nanomol/L. The reaction was stopped by the addition of 3 microL of a solution of TR-FRET detection reagents (125 nanomol/L streptavidine-XL665 [Cisbio Bioassays, Codolet, France] and 0.67 nanomol/L anti-Phospho-c-Myc (Ser 62) (E1J4K)-antibody from Cell Signalling [#13748] and 2 nanomol/L LANCE EU-W1024 labeled anti-rabbit IgG antibody [Perkin-Elmer, product no. 0083]) in an aqueous EDTA-solution (133 millimol/L EDTA, 0.27% (w/v) bovine serum albumin in 66.7 millimol/L HEPES pH 7.5).
(§1) The resulting mixture was incubated 1 h at 22° C. to allow the formation of complex between the phosphorylated biotinylated peptide and the detection reagents. Subsequently the amount of phosphorylated substrate was evaluated by measurement of the resonance energy transfer from the Eu-chelate to the streptavidine-XL. Therefore, the fluorescence emissions at 620 nm and 665 nm after excitation at 350 nm was measured in a TR-FRET reader, e.g. a Pherastar FS (BMG Labtechnologies, Offenburg, Germany) or a Viewlux (Perkin-Elmer). The ratio of the emissions at 665 nm and at […] was taken as the measure for the amount of phosphorylated substrate. The data were normalised (enzyme reaction without inhibitor=0% inhibition, all other assay components but no enzyme=100% inhibition).
Background: TR-FRET usually uses a lanthanide donor and a delayed reading to cut background.

A further test deals with T2, CDK2/CycE (Homo sapiens, UniProt P24941).
T2 construct: purchased ProQinase GmbH (Freiburg, Germany); host or cells: insect cells (Sf9)
The test can be described thus: CDK2/CycE kinase assay (TR-FRET, 2 mM ATP). As to conditions: read-out: CDK2/CyclinE, 2 mM ATP (high ATP) IC50-[mol/l] (median). Format: biochemical.
Excerpt: CDK2/CycE-inhibitory activity of compounds of the present invention was quantified employing the CDK2/CycE TR-FRET assay as described in the following paragraphs.
Recombinant fusion proteins of GST and human CDK2 and of GST and human CycE, expressed in insect cells (Sf9) and purified by Glutathion-Sepharose affinity chromatography, were purchase from ProQinase GmbH (Freiburg, Germany). As substrate for the kinase reaction biotinylated peptide biotin-Ttds-YISPLKSPYKISEG (C-terminus in amid form) was used which can be purchased e.g. form the company JERINI peptide technologies (Berlin, Germany).
For the assay 50 nanoL of a 100 fold concentrated solution of the test compound in DMSO was pipetted into a black low volume 384 well microtiter plate or a black 1536 well microtiter plate (both Greiner Bio-One, Frickenhausen, Germany), 2 microL of a solution of CDK2/CycE in aqueous assay buffer [50 millimol/L Tris/HCl pH 8.0, 10 millimol/L MgCl2, 1.0 millimol/L dithiothreitol, 0.1 millimol/L sodium ortho-vanadate, 0.01% (v/v) Nonidet-P40 (Sigma)] were added and the mixture was incubated for 15 min at 22° C. to allow pre-binding of the test compounds to the enzyme before the start of the kinase reaction. Then the kinase reaction was started by the addition of 3 microL of a solution of adenosine-tri-phosphate (ATP, 3.33 millimol/L=> final conc. in the 5 microL assay volume is 2 millimol/L) and substrate (1.25 micromol/L=> final conc. in the 5 microL assay volume is 0.75 micromol/L) in assay buffer and the resulting mixture was incubated for a reaction time of 25 min at 22° C. The concentration of CDK2/CycE was adjusted depending of the activity of the enzyme lot and was chosen appropriate to have the assay in the linear range, typical concentrations were in the range of 10 ng/ml. The reaction was stopped by the addition of 3 microL of a solution of TR-FRET detection reagents (0.333 micromol/L streptavidine-XL665 [Cisbio Bioassays, Codolet, France] and 1.67 nanomol/L anti-RB(pSer807/pSer8l 1)-antibody from BD Pharmingen [#558389] and 2 nanomol/L LANCE EU-W1024 labeled anti-mouse IgG antibody [Perkin-Elmer, product no. AD0077, as an alternative a Terbium-cryptate-labeled anti-mouse IgG antibody from Cisbio Bioassays can be used]) in an aqueous EDTA-solution (167 millimol/L EDTA, 0.2% (w/v) bovine serum albumin in 100 millimol/L HEPES pH 7.5).
as §1, with “Pherastar” for “Pherastar FS”

SMILES strings stand for the structures.

T1 sequence (Q9NYV4 with tags, fused parts or gaps): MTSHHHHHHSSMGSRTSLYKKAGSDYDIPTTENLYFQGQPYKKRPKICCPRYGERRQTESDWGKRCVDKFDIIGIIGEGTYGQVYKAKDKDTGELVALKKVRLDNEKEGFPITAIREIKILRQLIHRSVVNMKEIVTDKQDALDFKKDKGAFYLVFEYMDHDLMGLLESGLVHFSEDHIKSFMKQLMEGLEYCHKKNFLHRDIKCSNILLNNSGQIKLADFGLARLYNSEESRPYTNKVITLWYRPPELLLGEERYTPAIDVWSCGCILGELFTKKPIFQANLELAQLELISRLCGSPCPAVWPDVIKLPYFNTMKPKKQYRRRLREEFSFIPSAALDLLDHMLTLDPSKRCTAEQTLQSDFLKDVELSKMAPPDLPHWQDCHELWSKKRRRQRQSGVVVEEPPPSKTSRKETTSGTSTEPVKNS
T1 sequence (O75909 with tags, fused parts or gaps partner limits assumed): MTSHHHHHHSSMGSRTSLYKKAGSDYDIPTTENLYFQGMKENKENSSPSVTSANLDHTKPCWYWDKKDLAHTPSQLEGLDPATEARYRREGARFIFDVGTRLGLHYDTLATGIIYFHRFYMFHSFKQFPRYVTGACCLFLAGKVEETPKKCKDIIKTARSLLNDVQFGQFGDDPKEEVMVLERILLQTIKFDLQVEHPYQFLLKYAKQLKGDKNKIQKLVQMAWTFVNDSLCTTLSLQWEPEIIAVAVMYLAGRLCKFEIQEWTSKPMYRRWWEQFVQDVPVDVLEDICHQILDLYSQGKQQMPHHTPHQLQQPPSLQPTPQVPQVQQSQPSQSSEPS

In the case of `Fc1ccc2[nH]c(CNc3nc(N4CCNCC4)nn4c(Br)cnc34)nc2c1F` [Example 10, 7-bromo-N-[(4,5-difluoro-1H-benzimidazol-2-yl)methyl]-2-(piperazin-1-yl)imidazo[2,1-f][1,2,4]triazin-4-amine], the IC50 is 1.37 µM on CDK12/CycK and greater than 20 µM at CDK2/CycE. The corresponding values for `Fc1cccc(-c2cnc3c(NCc4nc5ccccc5[nH]4)nc(N4CCOCC4)nn23)c1` [Example 3, N-[(1H-benzimidazol-2-yl)methyl]-7-(3-fluorophenyl)-2-(morpholin-4-yl)imidazo[2,1-f][1,2,4]triazin-4-amine] are greater than 20 µM and greater than 20 µM.

Regarding `CN1CCN(c2nc(NCc3nc4c(F)cccc4[nH]3)c3ncc(Br)n3n2)CC1` [Example 23, 7-bromo-N-[(4-fluoro-1H-benzimidazol-2-yl)methyl]-2-(4-methylpiperazin-1-yl)imidazo[2,1-f][1,2,4]triazin-4-amine], the figures for the IC50 on CDK12/CycK and on CDK2/CycE were 10.8 µM and greater than 20 µM, respectively. With `Brc1cnc2c(NCc3nc4ccccc4[nH]3)nc(N3CCNCC3)nn12` [Example 8, N-[(1H-benzimidazol-2-yl)methyl]-7-bromo-2-(piperazin-1-yl)imidazo[2,1-f][1,2,4]triazin-4-amine], the results for the IC50 on CDK12/CycK and on CDK2/CycE were 5.65 µM and greater than 20 µM, respectively. The corresponding values for `N#Cc1cnc2c(NCc3nc4ccccc4[nH]3)nc(N3CCOCC3)nn12` [Example 2, 4-{[(1H-benzimidazol-2-yl)methyl]amino}-2-(morpholin-4-yl)imidazo[2,1-f][1,2,4]triazine-7-carbonitrile] are 6.98 µM and greater than 20 µM.

With `C[C@@H]1CN(c2nc(NCc3nc4c(F)c(F)ccc4[nH]3)c3ncc(C(F)(F)F)n3n2)C[C@H](C)N1` [Example 29, N-[(4,5-difluoro-1H-benzimidazol-2-yl)methyl]-2-[rel-(3R,5S)-3,5-dimethylpiperazin-1-yl]-7-(trifluoromethyl)imidazo[2,1-f][1,2,4]triazin-4-amine], the IC50 on CDK12/CycK is 0.0405 µM; on CDK2/CycE, greater than 20 µM.

Regarding `Fc1ccc2[nH]c(CNc3nc(N4CCOCC4)nn4c(Br)cnc34)nc2c1F` [Example 7, 7-bromo-N-[(4,5-difluoro-1H-benzimidazol-2-yl)methyl]-2-(morpholin-4-yl)imidazo[2,1-f][1,2,4]triazin-4-amine], the IC50 on CDK12/CycK was 1.26 µM; at CDK2/CycE, greater than 20 µM. Turning to `C[C@@H]1CN(c2nc(NCc3nc4cc(F)ccc4[nH]3)c3ncc(Br)n3n2)C[C@H](C)N1` [Example 19, 7-bromo-2-[rel-(3R,5S)-3,5-dimethylpiperazin-1-yl]-N-[(5-fluoro-1H-benzimidazol-2-yl)methyl]imidazo[2,1-f][1,2,4]triazin-4-amine], the values for the IC50 on CDK12/CycK and on CDK2/CycE were 6.43 µM and greater than 20 µM, respectively. For `Fc1ccc2[nH]c(CNc3nc(N4CCOCC4)nn4c(Br)cnc34)nc2c1` [Example 20, 7-bromo-N-[(5-fluoro-1H-benzimidazol-2-yl)methyl]-2-(morpholin-4-yl)imidazo[2,1-f][1,2,4]triazin-4-amine], the results for the IC50 on CDK12/CycK and at CDK2/CycE were 3.46 µM and 17.2 µM, respectively.

With `C[C@@H]1CN(c2nc(NCc3nc4ccccc4[nH]3)c3ncc(Br)n3n2)C[C@H](C)O1` [Example 4, N-[(1H-benzimidazol-2-yl)methyl]-7-bromo-2-[rel-(2R,6S)-2,6-dimethylmorpholin-4-yl]imidazo[2,1-f][1,2,4]triazin-4-amine], the values for the IC50 at CDK12/CycK and on CDK2/CycE were 0.99 µM and greater than 20 µM, respectively. As for `C[C@@H]1CN(c2nc(NCc3nc4c(F)cccc4[nH]3)c3ncc(Br)n3n2)C[C@H](C)N1` [Example 18, 7-bromo-2-[rel-(3R,5S)-3,5-dimethylpiperazin-1-yl]-N-[(4-fluoro-1H-benzimidazol-2-yl)methyl]imidazo[2,1-f][1,2,4]triazin-4-amine], the values for the IC50 on CDK12/CycK and on CDK2/CycE were 1.8 µM and greater than 20 µM, respectively. Turning to `CN1CCN(c2nc(NCc3nc4ccccc4[nH]3)c3ncc(C(F)(F)F)n3n2)CC1` [Example 25, N-[(1H-benzimidazol-2-yl)methyl]-2-(4-methylpiperazin-1-yl)-7-(trifluoromethyl)imidazo[2,1-f][1,2,4]triazin-4-amine], the IC50 was 10.8 µM at CDK12/CycK and greater than 20 µM at CDK2/CycE. As for `COc1cccc2[nH]c(CNc3nc(N4CCOCC4)nn4c(Br)cnc34)nc12` [Example 13, 7-bromo-N-[(4-methoxy-1H-benzimidazol-2-yl)methyl]-2-(morpholin-4-yl)imidazo[2,1-f][1,2,4]triazin-4-amine], the IC50 at CDK12/CycK is 1.33 µM; on CDK2/CycE, 5.74 µM.

Take `FC(F)(F)c1cnc2c(NCc3nc4ccccc4[nH]3)nc(N3CCOCC3)nn12` [Example 26, N-[(1H-benzimidazol-2-yl)methyl]-2-(morpholin-4-yl)-7-(trifluoromethyl)imidazo[2,1-f][1,2,4]triazin-4-amine]: the IC50 is 0.172 µM at CDK12/CycK and greater than 19.4 µM on CDK2/CycE. For the molecule `Fc1cccc2[nH]c(CNc3nc(N4CCNCC4)nn4c(Br)cnc34)nc12` [Example 22, 7-bromo-N-[(4-fluoro-1H-benzimidazol-2-yl)methyl]-2-(piperazin-1-yl)imidazo[2,1-f][1,2,4]triazin-4-amine], the IC50 on CDK12/CycK is 2.56 µM.

(Values after patent US20230106032A1, “IMIDAZOTRIAZINES ACTING ON CANCER VIA INHIBITION OF CDK12” (Bayer Aktiengesellschaft, priority 2020, published 2023).)
